The subject of one assay is MKN-45 cells. The experiment in a line: MKN-45 cell proliferation assay (resazurin). The class given is cell-based. The note with it: Homo sapiens, 67 h + 5 h resazurin. Here is the method: MKN-45 cells (catalog #JCRB0254) were obtained from the Japan Health Science Research Resources Bank, Osaka, Japan. Briefly, cells were grown in RPMI 1640 media supplemented with 10% characterized fetal bovine serum (Invitrogen, Carlsbad, Calif.) at 37° C., 5% CO2, 95% humidity. Cells were allowed to expand until reaching 70-95% confluency at which point they were subcultured or harvested for assay use.
A serial dilution of test compound was dispensed into a 96-well black clear bottom plate (Corning, Corning, N.Y.). Five thousand cells were added per well in 200 μL complete growth medium. Plates were incubated for 67 hours at 37° C., 5% CO2, 95% humidity. At the end of the incubation period 40 μL of a 440 μM solution of resazurin (Sigma, St. Louis, Mo.) in PBS was added to each well and plates were incubated for an additional 5 h at 37° C., 5% CO2, 95% humidity. Plates were read on a Synergy2 reader (Biotek, Winooski, Vt.) using an excitation of 540 nm and an emission of 600 nm. Data was analyzed using Prism software (GraphPad, San Diego, Calif.) to calculate IC50 values.
For orientation: The colour change of resazurin is a common sign of viable cells or microbes.

The subject of a further assay is A549 cells. The experiment in a line: A549 cell migration assay (HGF-stimulated). The class given is cell-based. The note with it: Homo sapiens, 40 ng/mL HGF, 48 h migration. The protocol: A549 cells (catalog # CCL-185) were obtained from the American Type Culture Collection (ATCC, Manassas, Va.). Briefly, cells were grown in DMEM supplemented with 10% characterized fetal bovine serum (Invitrogen, Carlsbad, Calif.) at 37 degrees Celsius, 5% CO2, 95% humidity. Cells were allowed to expand until reaching 70-95% confluency at which point they were subcultured or harvested for assay use.
Forty thousand cells in DMEM supplemented with 10% characterized fetal bovine serum (FBS; Invitrogen, Carlsbad, Calif.) were added per well in a 96-well black clear bottom Oris Collagen-Coated cell migration plate containing cell seeding stoppers (Platypus Technologies, Madison, Wis.). Cells were then incubated overnight at 37 degrees Celsius, 5% CO2, 95% humidity. Cell seeding stoppers were removed creating an area for cell migration in the center of each well of the plate. Media was replaced with DMEM supplemented with 0.5% FBS. […] A plate mask (Platypus Technologies, Madison, Wis.) that obscures each well except for the area for cell migration in the center of the well was attached to the bottom of the migration plate and fluorescence was detected using a fluorescent plate reader. Data was analyzed using Prism software (Graphpad, San Diego, Calif.) to calculate IC50 values.

The subject of assay [1] is MET activity in MKN-45 xenograft tumors. Briefly: pMET inhibition in a MKN-45 xenograft pharmacodynamic model. The class given is in vivo. The settings on record: nude mice, single oral 10 mg/kg dose, out to 8 h post dose. Here is the method: To examine the in vivo modulation of MET activity by compounds of formula I, MKN-45 xenograft tumors were excised at varying time points following a single oral dose. Briefly, MKN-45 cells were obtained from the Japan Health Sciences Foundation and expanded in RPMI medium which was supplemented with 20% FBS, 1% PSG (Penicillin/Streptomycin/Glutamine). The growth environment was maintained in an incubator with a 5% CO2 atmosphere at 37° C. Cells were harvested and re-suspended using 50% serum-free media and 50% Matrigel® to generate a stock concentration of 5×10^6 cells/mL.
Seven to 8 week old female Harlan nude mice (Hsd:AthymicNude-Fox1nu) were injected with 200 μL of cell suspension subcutaneously, just below the right axilla. All procedures carried out in this experiment were conducted in compliance with all the laws, regulations and guidelines of the National Institutes of Health (NIH). Treatment began when the mean tumor burden was approximately 300 mg. All mice were dosed with test compound by oral gavage. Plasma and tumor samples were collected from three mice at each timepoint 2, 4, 6, 8, 12, 18, and 24 hours after dosing. […] Plasma levels of MET inhibitors were determined by mass spectrometer analysis.

In assay [2] the test system is MKN-45 human gastric adenocarcinoma xenograft. Briefly: MKN-45 xenograft study. In kind it is in vivo. The settings on record: nude mice, oral gavage, after 14 days. The protocol: To evaluate the in vivo anti-cancer activity compounds of formula I, a MKN-45 human gastric adenocarcinoma xenograft was employed. Briefly, MKN-45 cells were obtained from the Japan Health Sciences Foundation and expanded in RPMI medium which was supplemented with 20% FBS, 1% PSG. The growth environment was maintained in an incubator with a 5% CO2 atmosphere at 37° C. Cells were harvested and re-suspended using 50% serum-free media and 50% Matrigel® to generate a stock concentration of 5×10^6 cells/mL.
Seven to 8 week old female Harlan nude mice (Hsd:AthymicNude-Fox1nu) were injected with 200 μL of cell suspension subcutaneously, just below the right axilla. All procedures carried out in this experiment were conducted in compliance with all the laws, regulations and guidelines of the National Institutes of Health (NIH). Treatment began when the mean tumor burden was approximately 150 mg. All mice were dosed with test compound by oral gavage. Body weights and tumor measurements were recorded three times weekly. Tumor burden (mg) was estimated from caliper measurements by the formula for the volume of a prolate ellipsoid assuming unit density as: Tumor burden (mg)=(L×W2)/2, where L and W were the respective orthogonal tumor length and width measurements (mm). […]

pIC50: −log10 of the molar value.

With `CCNc1ccn(-c2ccc(F)cc2)c(=O)c1C(=O)Nc1cc(F)c(Oc2ccnc(-c3cnn(C)c3)c2)cc1F` [Example 5, N-(2,5-difluoro-4-((2-(1-methyl-1H-pyrazol-4-yl)pyridin-4-yl)oxy)phenyl)-4-(ethylamino)-1-(4-fluorophenyl)-2-oxo-1,2-dihydropyridine-3-carboxamide], the negative-log IC50 (pIC50) – broadly, −log10 of the IC50, conventionally taken in molar units – with MKN-45 cells was 6.00 to 7.00.

`Cn1cc(-c2cc(Oc3cc(F)c(NC(=O)c4cccn(-c5ccc(F)cc5)c4=O)cc3F)ccn2)cn1` [Example 1, N-(2,5-difluoro-4-((2-(1-methyl-1H-pyrazol-4-yl)pyridin-4-yl)oxy)phenyl)-1-(4-fluorophenyl)-2-oxo-1,2-dihydropyridine-3-carboxamide]: the values for the pIC50 in the assay on MKN-45 cells and in the assay with A549 cells were at least 7.00 and 6.00 to 7.00, respectively.

For the compound `CCOc1ccn(-c2ccc(F)cc2)c(=O)c1C(=O)Nc1cc(F)c(Oc2ccnc(-c3cnn(C)c3)c2)cc1F` [Example 2, N-(2,5-difluoro-4-(2-(1-methyl-1H-pyrazol-4-yl)pyridin-4-yloxy)phenyl)-4-ethoxy-1-(4-fluorophenyl)-2-oxo-1,2-dihydropyridine-3-carboxamide], the pIC50 in the assay on MKN-45 cells and with A549 cells was at least 7.00 in each case. Further, the “inhibition of cFOS mRNA levels” value in assay [1] was determined as 80%. Also, the “% T/C” value in assay [2] (10 mg/kg twice daily) is 19 % T/C; in assay [2] (30 mg/kg twice daily), 12 % T/C.

The values are drawn from patent US9012635B2, “Pyridone amides and analogs exhibiting anti-cancer and anti-proliferative activities” (Deciphera Pharmaceuticals, LLC, priority 2013, dated 2015).
